From patent publication US8163768B2, “1,4-dihydropyridine-fused heterocycles, process for preparing the same, use and compositions containing them” (Aventis Pharma S.A.., priority 2005, dated 2012) come the findings set out here.

As usually defined, the IC50 is the concentration that inhibits the measured activity by half.

The target of one assay is T1, Aurora1 (Aurora-B) (Homo sapiens, UniProt Q96GD4).
T1 construct: Aurora-B: the full length protein (His tagged in N-terminal) has been co expressed in SF9 cells; poly-histidine (N); made in house; host or cells: SF9 cells
T1 sequence (Q96GD4 whole entry, species assumed): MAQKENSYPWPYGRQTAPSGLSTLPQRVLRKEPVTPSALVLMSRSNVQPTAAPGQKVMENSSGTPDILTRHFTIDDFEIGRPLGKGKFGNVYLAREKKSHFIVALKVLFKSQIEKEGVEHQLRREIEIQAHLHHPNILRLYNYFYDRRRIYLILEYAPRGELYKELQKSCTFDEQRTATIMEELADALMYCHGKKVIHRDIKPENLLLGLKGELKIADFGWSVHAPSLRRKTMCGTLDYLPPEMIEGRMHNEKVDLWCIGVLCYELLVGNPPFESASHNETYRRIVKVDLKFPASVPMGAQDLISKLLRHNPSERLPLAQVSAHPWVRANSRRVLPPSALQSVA
T1 sequence (Q9NQS7 821-918 partner limits assumed, species assumed): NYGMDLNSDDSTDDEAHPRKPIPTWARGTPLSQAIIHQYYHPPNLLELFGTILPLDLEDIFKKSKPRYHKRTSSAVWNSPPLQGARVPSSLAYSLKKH
Briefly: Aurora 1 (Aurora B) kinase radioactivity scintillation assay using nickel chelate Flash plates. Format: biochemical. The conditions noted are these: 10 nM Aurora-B (co expressed with C3 fragment of INCEP), 500 nM NuMA substrate, 1 μM ATP with [33P] ATP, 5 mM MgCl2, 30 minutes, 37° C. A digest of the protocol: (§1)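 10 nM Aurora-B or Aurora-A with 500 nM NuMA-His substrate, 1 μM ATP plus [³³P]ATP, in 50 mM NaCl, 1 mM DTT and 5 mM (B) or 10 mM (A) MgCl2, 30 min at 37° C on nickel-chelate plates. Incorporated ³³P counted after washing, background-subtracted; IC50 fitted from % inhibition versus concentration.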

The target in the next assay is T2, Aurora2 (Aurora-A) (Homo sapiens, UniProt O14965).
T2 construct: Aurora-A: the full length recombinant protein including an N-terminal poly-histidine tail has been expressed in E. coli; poly-histidine (N); made in house; host or cells: E. coli
T2 sequence (O14965 1-403): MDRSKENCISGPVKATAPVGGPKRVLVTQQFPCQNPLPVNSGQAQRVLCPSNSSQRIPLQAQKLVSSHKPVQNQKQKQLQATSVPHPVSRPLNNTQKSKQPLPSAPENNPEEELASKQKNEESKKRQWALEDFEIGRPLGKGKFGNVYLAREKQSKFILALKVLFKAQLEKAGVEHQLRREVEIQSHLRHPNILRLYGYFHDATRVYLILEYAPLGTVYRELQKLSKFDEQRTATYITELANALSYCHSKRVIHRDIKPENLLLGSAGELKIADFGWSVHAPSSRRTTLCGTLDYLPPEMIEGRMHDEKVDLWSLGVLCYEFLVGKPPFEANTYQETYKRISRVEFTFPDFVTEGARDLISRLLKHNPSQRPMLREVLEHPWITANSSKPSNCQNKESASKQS
The assay can be described thus: Aurora 2 (Aurora A) kinase radioactivity scintillation assay using nickel chelate Flash plates. Format: biochemical. The conditions noted are these: 10 nM Aurora-A, 500 nM NuMA substrate, 1 μM ATP with [33P] ATP, 10 mM MgCl2, 30 minutes, 37° C. The method, boiled down:
as §1

With `CC1(C)CC(=O)C2=C(C1)Nc1n[nH]cc1C2c1ccc(Sc2nc3cc(Cl)c(Cl)cc3[nH]2)o1` (centres unmarked) [Example 87, 4-[5-(5,6-Dichloro-1H-benzoimidazol-2-ylsulfanyl)-furan-2-yl]-7,7-dimethyl-2,4,6,7,8,9-hexahydro-pyrazolo[3,4-b]quinolin-5-one], the IC50 at Aurora1 (Aurora-B) worked out at 0.008 µM; at Aurora2 (Aurora-A), 0.022 µM.

Regarding `O=C1CCCC2=C1C(c1ccc(Sc3nc4cc(Cl)ccc4o3)o1)c1c[nH]nc1N2` (centres unmarked) [Example 88, 4-[5-(5-Chloro-benzoxazol-2-ylsulfanyl)-furan-2-yl]-2,4,6,7,8,9-hexahydro-pyrazolo[3,4-b]quinolin-5-one; compound with trifluoro-acetic acid], the IC50 turned out to be 0.091 µM at Aurora1 (Aurora-B) and 0.362 µM on Aurora2 (Aurora-A).

Consider `CCOC(=O)c1[nH]cc2c1NC1=C(C(=O)CCC1)C2c1ccc(Sc2nc3cc(O)ccc3[nH]2)o1` (centres unmarked) [Example 89, 9-[5-(5-Hydroxy-1H-benzoimidazol-2-ylsulfanyl)-furan-2-yl]-8-oxo-4,5,6,7,8,9-hexahydro-2H-pyrrolo[3,4-b]quinoline-3-carboxylic acid ethyl ester], for which the half-maximal inhibitory concentration (IC50) at Aurora1 (Aurora-B) turned out to be 0.031 µM; at Aurora2 (Aurora-A), 0.355 µM.

As to `CC1(C)CC(=O)C2=C(C1)Nc1n[nH]cc1C2c1ccc(Sc2nc3cc(Cl)ccc3o2)o1` (centres unmarked) [Example 90, 4-[5-(5-Chloro-benzoxazol-2-ylsulfanyl)-furan-2-yl]-7,7-dimethyl-2,4,6,7,8,9-hexahydro-pyrazolo[3,4-b]quinoline-5-one], the IC50 on Aurora1 (Aurora-B) was determined as 0.194 µM; on Aurora2 (Aurora-A), 0.67 µM.

Take `Cc1c[nH]c(Sc2ccc(C3C4=C(CC(C)(C)CC4=O)Nc4n[nH]cc43)o2)n1` (centres unmarked) [Example 91, 7,7-Dimethyl-4-[5-(4-methyl-1H-imidazol-2-ylsulfanyl)-furan-2-yl]-2,4,6,7,8,9-hexahydro-pyrazolo[3,4-b]quinolin-5-one; compound with trifluoro-acetic acid]: the IC50 on Aurora1 (Aurora-B) worked out at 0.086 µM; on Aurora2 (Aurora-A), 0.156 µM.

Consider `Cn1c(-c2ccc(Cl)cc2)cnc1Sc1ccc(C2C3=C(CCCC3=O)Nc3n[nH]cc32)o1` (centres unmarked) [Example 92, 4-{5-[5-(4-Chloro-phenyl)-1-methyl-1H-imidazol-2-ylsulfanyl]-furan-2-yl}-2,4,6,7,8,9-hexahydro-pyrazolo[3,4-b]quinolin-5-one], for which the values for the IC50 on Aurora1 (Aurora-B) and on Aurora2 (Aurora-A) were 0.233 µM and 2.09 µM, respectively.

Take `Cn1c(-c2ccc(Cl)cc2)cnc1Sc1ccc(C2C3=C(CC(C)(C)CC3=O)Nc3n[nH]cc32)o1` (centres unmarked) [Example 93, 4-{5-[5-(4-Chloro-phenyl)-1-methyl-1H-imidazol-2-ylsulfanyl]-furan-2-yl}-7,7-dimethyl-2,4,6,7,8,9-hexahydro-pyrazolo[3,4-b]quinolin-5-one]: the IC50 on Aurora1 (Aurora-B) amounted to 0.156 µM; at Aurora2 (Aurora-A) it was 1.36 µM.

With `Cn1c(-c2ccc(Cl)cc2)cnc1Sc1ccc(C2C3=C(CNCC3=O)Nc3n[nH]cc32)o1` (centres unmarked) [Example 94, 4-{5-[5-(4-Chloro-phenyl)-1-methyl-1H-imidazol-2-ylsulfanyl]-furan-2-yl}-2,4,6,7,8,9-hexahydro-pyrazolo[3,4-b]-1,7-naphthyridin-5-one; compound with trifluoro-acetic acid], the 50% inhibitory concentration (IC50) on Aurora1 (Aurora-B) is 1.22 µM; at Aurora2 (Aurora-A), 9.81 µM.

As to `O=C1CCCC2=C1C(c1ccc(Sc3nc4cc(C(F)(F)F)ccc4[nH]3)o1)c1cn[nH]c1N2` (centres unmarked) [Example 95, 4-[5-(5-Trifluoromethyl-1H-benzimidazol-2-ylsulfanyl)-furan-2-yl]-1,4,6,7,8,9-hexahydro-pyrazolo[3,4-b]quinolin-5-one], the values for the IC50 at Aurora1 (Aurora-B) and on Aurora2 (Aurora-A) were 0.009 µM and 0.061 µM, respectively.

Consider `CC1(C)CC(=O)C2=C(C1)Nc1n[nH]cc1C2c1ccc(Sc2nc3cc(C(F)(F)F)ccc3[nH]2)o1` (centres unmarked) [Example 96, 4-[5-(5-Trifluoromethyl-1H-benzoimidazol-2-ylsulfanyl)-furan-2-yl]-7,7-dimethyl-2,4,6,7,8,9-hexahydro-pyrazolo[3,4-b]quinolin-5-one], for which the IC50 was found to be 0.023 µM on Aurora1 (Aurora-B) and 0.058 µM at Aurora2 (Aurora-A).
